These results are taken from patent US9518038B2, “Condensation product of theanine derivative and carboxylic acid coumarin derivative, its intermediate, preparation method and use thereof” (SHANDONG YINGDONG YINGHAO BIOTECHNOLOGY, INC., priority 2012, dated 2016).

The test system of experiment [1] is human gastric cancer cells BGC-823. In words: MTT growth inhibition, BGC-823 cells. The format is cell-based. Conditions: 72 h after treatment, read-out: Drug concentration (IC50) at which 50% cancer cells survived.
For experiment [2], the system named is human colon cancer cells HT29. Kind of experiment: MTT growth inhibition, HT29 cells. Conditions: HT-29, 72 h after treatment, read-out: Drug concentration (IC50) at which 50% cancer cells survived. The format is cell-based.
Experiment [3] deals with human liver cancer cells HepG2. In words: MTT growth inhibition, HepG2 cells. The format is cell-based. Particulars: 72 h after treatment, read-out: Drug concentration (IC50) at which 50% cancer cells survived.
In experiment [4] the test system is human liver cancer cells SMMC7721 xenograft. In words: In-vivo growth of SMMC7721 xenografts in nude mice. On the set-up: species or system BALB/c nude mice. Conditions: Mus musculus, SMMC-7721, ip, S-7721 xenograft, vs DMSO solvent control, read-out: Curative effect (inhibition rate %) of tumor weight; for inhibition in vivo at 60 mg/kg: 60 mg/kg intraperitoneal once a day; for inhibition in vivo at 90 mg/kg: 90 mg/kg intraperitoneal once a day. As to the method:
(§1) RPMI1640 and DMEM culture solutions: Hyclone Company; inactivated fetal bovine serum: Hyclone Company, preserved at −20° C.; trypsin: Amersco Company; and 0.4% trypan blue: Sigma Company;
(§2) (3) Observation of growth of tumors in nude mice: the activities (including food intake, traits of urine and stool, mental state and the like) of the nude mice and the tumor growth time and growth situation of the transplanted tumors were observed every day, the body weight and the size of the tumors were measured once every 2-3 days. The long diameter a and the short diameter b (mm) of each tumor were measured by a vernier caliper to calculate the volume, wherein the volume V=π1/2·ab^2 (mm^3);
(§3) (4) sacrifice of animals: the mice were anesthetized and photoed after treatment experiments; the nude mice were sacrificed by breaking neck, the tumor tissues were stripped under sterile conditions and the weight of the tumors was weighed; and the effects of the drugs on pathology and toxicity of the various organs and tissues were detected.

Experiment [5] relates to human cervical cancer cells Hela xenograft. Kind of experiment: In-vivo growth of Hela xenografts in nude mice. Also on record: species or system BALB/c nude mice. Particulars: Mus musculus, ip, vs DMSO solvent control, read-out: Curative effect (inhibition rate %) of tumor weight; for inhibition in vivo at 60 mg/kg: 60 mg/kg intraperitoneal once a day; for inhibition in vivo at 90 mg/kg: 90 mg/kg intraperitoneal once a day. As for the experimental part: as §1, §2, §3

For experiment [6], the system named is Lewis lung cancer (highly metastatic mouse lung cancer) cells. In words: Mouse Lewis lung cancer metastasis model. The experiment is classed as in vivo, C57/BL6J black mice. Particulars: Lewis lung carcinoma, ip, LLC, vs DMSO solvent control, read-out: tumor lung metastasis inhibition rate % of mouse Lewis lung cancer; for inhibition in vivo at 60 mg/kg: 60 mg/kg intraperitoneal once a day; for inhibition in vivo at 90 mg/kg: 90 mg/kg intraperitoneal once a day. As for the experimental part:
as §1, §3

In a further experiment the test system is K-Ras. Kind of experiment: Western Blotting, K-Ras level. The experiment is classed as cell-based. Particulars: human liver cancer cells, Lewis lung cancer cells and other cancer cell lines and tumor tissues, read-out: Effective concentration (IC50) for inhibition of K-Ras. From the text:
(§4) Antibodies: primary antibodies of VEGFR, EGFR, c-Met, K-Ras, H-Ras, Akt, NF-κB, Cyclin D1, ER-alpha, Dvl-1, Dvl-2, Dvl-3, MMP-9, MMP2, β-catenin, Bcl-2, Bax, p53, p21, E-cadherin and Caspase3 protein, purchased from American Cell Signaling Technology Company and Santa Cruz Technology Company; and H3 acetylation, H4 acetylation and HDAC (HDAC3, HDAC4 and the like) Antibody Sample Kits, purchased from Cell Signaling Technology Company of the U.S.
(§5) (3) polyacrylamide gel electrophoresis (SDS-PAGE): an equal amount of protein lysate sample was used to separate protein, film transfer, and blocking, treated with appropriate primary antibodies and secondary antibodies in sequence, and the film was washed, then the color was developed with ECL kit, and a blot protein band was detected by exposure of an X-ray film; and a Gel-Pro Analyzer was used for quantitative analysis of gray degree, optical density value of the control group and the drug treatment group in various concentration were respectively compared with that of internal reference, the obtained ratios were respectively compared with the control group, and the protein expression level was semi-quantified.
In general terms: Immunoblotting shows a protein as a band on a membrane.

The next experiment concerns VEGFR1. Kind of experiment: Western Blotting, VEGFR1 level. The experiment is classed as cell-based. Particulars: human liver cancer cells, Lewis lung cancer cells and other cancer cell lines and tumor tissues, read-out: Effective concentration (IC50) for inhibition of VEGFR1.
Source text: as §4, §5

A further experiment deals with VEGFR2. In words: Western Blotting, VEGFR2 level. The format is cell-based. Conditions: human liver cancer cells, Lewis lung cancer cells and other cancer cell lines and tumor tissues, read-out: Effective concentration (IC50) for inhibition of VEGFR2.
Source text: as §4, §5

Another experiment deals with HDAC4. Kind of experiment: Western Blotting, HDAC4 level. The experiment is classed as cell-based. Particulars: human liver cancer cells, Lewis lung cancer cells and other cancer cell lines and tumor tissues, read-out: Effective concentration (IC50) for inhibition of HDAC4.
Source text: as §4, §5

Take `CCNC(=O)CCC(NC(=O)c1cc2cc(F)ccc2oc1=O)C(=O)OCC` (stereo in doubt) [Compound Ie, (R)-2-(6-F-2-oxo-2H-benzopyran-3-carboxamido)-5-ethylamino-5-oxo-pentanoic acid ethyl ester]: the IC50 was 143 µM in [1]; 240 µM in [2]; 230 µM in experiment [3]; below 60 µM in the experiment with K-Ras; below 110 µM with VEGFR1; below 90 µM in the experiment on VEGFR2. The IC50 in the experiment with HDAC4 is below 50 µM. Besides, the inhibition in vivo at 60 mg/kg in experiment [4] stood at 64.8%; in [5], 60.7%; in experiment [6], 61.6%. Further, the figures for the inhibition in vivo at 90 mg/kg in experiment [4], in experiment [5] and in experiment [6] were 69.9%, 70.5% and 70.8%, respectively.
Consider `CCNC(=O)CCC(NC(=O)c1cc2cc([N+](=O)[O-])ccc2oc1=O)C(=O)OCC` (stereo in doubt) [Compound If, (R)-2-(6-nitro-2-oxo-2H-benzopyran-3-carboxamido)-5-ethylamino-5-oxo-pentanoic acid ethyl ester], for which the IC50 was 115 µM in [1]; 153 µM in experiment [2]; 130 µM in experiment [3]; below 55 µM in the experiment with K-Ras; below 90 µM with VEGFR1; below 90 µM in the experiment with VEGFR2. In addition, in the experiment on HDAC4, the IC50 was below 45 µM. Also, the inhibition in vivo at 60 mg/kg stood at 65.7% in [4], 50.9% in experiment [5] and 67.5% in experiment [6]. For the same compound, the inhibition in vivo at 90 mg/kg in experiment [4] worked out at 75.7%; in experiment [5], 66.8%; in experiment [6], 75.8%.
In the case of `CCNC(=O)CC[C@H](N)C(=O)OC` [Compound IIa, theanine methyl ester], the values for the IC50 in experiment [1], in [2] and in [3] were 310 µM, 250 µM and 600 µM, respectively. Also, the values for the inhibition in vivo at 60 mg/kg in [4], in [5] and in experiment [6] were 36.6%, 38.7% and 36.8%, respectively. The inhibition in vivo at 90 mg/kg in experiment [4] is 38.2%; in experiment [5] it was 38.7%; in experiment [6] it was 38.5%.
For the compound `CCNC(=O)CC[C@H](N)C(=O)OCC` [Compound IIb, theanine ethyl ester], the IC50 was found to be 600 µM in experiment [1], 600 µM in experiment [2] and 300 µM in [3]. Further, the inhibition in vivo at 60 mg/kg came to 44.6% in [4], 41.7% in experiment [5] and 52.3% in [6]. Further, the figures for the inhibition in vivo at 90 mg/kg in experiment [4], in experiment [5] and in experiment [6] were 46.8%, 41.7% and 54.7%, respectively.
In the case of `CCNC(=O)CCC(NC(=O)c1cc2ccccc2oc1=O)C(=O)OC` (stereo not shown) [Compound Ia, methyl 5-ethylamino-5-oxo-2-(2-oxo-2H-benzopyran-3-carboxamido)pentanoate], the IC50 in [1] was 123 µM; in experiment [2], 62 µM; in [3], 250 µM; in the experiment with K-Ras it was below 85 µM; with VEGFR1, below 125 µM; in the experiment with VEGFR2 it was below 125 µM. The IC50 in the experiment with HDAC4 was below 65 µM. For the same compound, the inhibition in vivo at 60 mg/kg in experiment [4] worked out at 52.7%; in experiment [5] it was 54.7%; in [6] it was 55.4%. Also, the inhibition in vivo at 90 mg/kg in experiment [4] came to 61.9%; in experiment [5], 62.9%; in experiment [6] it was 60.9%.
For `CCNC(=O)CCC(NC(=O)c1cc2ccccc2oc1=O)C(=O)OCC` (stereo not shown) [Compound Ib, ethyl 5-ethylamino-5-oxo-2-(2-oxo-2H-benzopyran-3-carboxamido)pentanoate], the IC50 in [1] is 127 µM; in experiment [2], 105 µM; in experiment [3] it was 225 µM; with K-Ras, below 75 µM; in the experiment with VEGFR1, below 120 µM; in the experiment on VEGFR2, below 120 µM. The IC50 in the experiment with HDAC4 is below 60 µM. Moreover, the values for the inhibition in vivo at 60 mg/kg in experiment [4], in experiment [5] and in [6] were 60.8%, 53.9% and 58.2%, respectively. Moreover, the inhibition in vivo at 90 mg/kg in [4] amounted to 66.6%; in experiment [5] it was 63.8%; in experiment [6] it was 69.6%.
Turning to `CCNC(=O)CC[C@@H](NC(=O)c1cc2cc(Cl)ccc2oc1=O)C(=O)OCC` [Compound Ic, (R)-2-(6-CI-2-oxo-2H-benzopyran-3-carboxamido)-5-ethylamino-5-oxo-pentanoic acid ethyl ester], the IC50 in experiment [1] was 66 µM; in experiment [2], 105 µM; in experiment [3], 93 µM; with K-Ras, below 65 µM; in the experiment with VEGFR1 it was below 100 µM; in the experiment with VEGFR2, below 100 µM. Moreover, the IC50 with HDAC4 is below 50 µM. Further, the inhibition in vivo at 60 mg/kg in [4] amounted to 63.2%; in [5] it was 53.7%; in experiment [6], 74.2%. Besides, the figures for the inhibition in vivo at 90 mg/kg in experiment [4], in experiment [5] and in experiment [6] were 69.2%, 65.8% and 79.2%, respectively.
Regarding `CCNC(=O)CC[C@@H](NC(=O)c1cc2cc(Br)ccc2oc1=O)C(=O)OCC` [Compound Id, (R)-2-(6-Br-2-oxo-2H-benzopyran-3-carboxamido)-5-ethylamino-5-oxo-pentanoic acid ethyl ester], the IC50 was 65 µM in experiment [1]; 45 µM in [2]; 125 µM in [3]; below 60 µM in the experiment on K-Ras; below 100 µM in the experiment with VEGFR1; below 100 µM in the experiment on VEGFR2. Further, in the experiment on HDAC4, the IC50 is below 50 µM. Besides, the inhibition in vivo at 60 mg/kg in experiment [4] came out at 67.2%; in experiment [5], 57.9%; in experiment [6] it was 69.2%. Besides, the inhibition in vivo at 90 mg/kg turned out to be 75.7% in experiment [4], 71.9% in experiment [5] and 82.5% in experiment [6].
For the compound `CCNC(=O)CC[C@@H](NC(=O)c1cc2cc(Cl)cc(Cl)c2oc1=O)C(=O)OCC` [Compound Ig, (R)-2-(6,8-dichloro-2-oxo-2H-benzopyran-3-carboxamido)-5-ethylamino-5-oxo-pentanoic ethyl ester], the IC50 is 60 µM in experiment [1]; 99 µM in experiment [2]; 46 µM in experiment [3]; below 65 µM in the experiment on K-Ras; below 100 µM with VEGFR1; below 100 µM in the experiment with VEGFR2. Moreover, the IC50 in the experiment on HDAC4 is below 50 µM. Further, the inhibition in vivo at 60 mg/kg in experiment [4] worked out at 53.6%; in experiment [5] it was 56.7%; in experiment [6], 75.5%. In addition, the inhibition in vivo at 90 mg/kg was 70.6% in [4], 70.3% in [5] and 79.9% in [6].
